From patent US4738983A, “Ethylenediamine and guanidine-derivatives” (Degussa aktiengesellschaft, priority 1982, dated 1988)

System: carbachol spasm of the rat stomach
Assay: carbachol spasm of the rat stomach (stomach-spasmolytic effect)
Assay type: in vivo
Settings: intraduodenal, relative to Ranitidin
Description: The test substances are applied intraduodenally. In this model, the stomach-spasmolytic effect of the compound according to Example 1 is, for example 3.8 times greater than that of "Ranitidin".

CNC(=C[N+](=O)[O-])NCCSCc1ccc(CNC2C3CC4C(C3)C42)o1 (stereo not shown) [Example 1, N-[2-[[5-(tricyclo(2.2.1.0^2.6)hept-3-yl-amino-methyl)-2-furanyl]-methylthio]-ethyl]-N'-methyl-2-nitro-1,1-ethylene-diamine]
stomach-spasmolytic effect, times greater than that of Ranitidin: 3.8 times
